In US20030186817A1, “SUBSTITUTED 2,4-DIAMINO-1,3,5-TRIAZINES, PROCESSES FOR THEIR PREPARATION AND THEIR USE AS HERBICIDES AND PLANT GROWTH REGULATORS” (priority 1998, published 2003):

Legend:
Type in all cases: in vivo
[1] = test system: Stellaria media, Amaranthus retroflexus, Sinapis avreuse, Avena fatura, Lolium multiflorum and Setaria viridis; assay: Pre-emergence action against weeds (greenhouse pot test, visual rating); settings: application rate of 3.0 kg or less of active substance per hectare, trial period of 3 to 4 weeks
Text: Seeds of mono- and dicotyledonous weed plants are placed in sandy loam soil in cardboard pots and covered with soil. The novel compounds, formulated as wettable powders or emulsion concentrates, are then applied to the surface of the soil cover in the form of an aqueous suspension or emulsion at an application rate of from 600 to 800 l of water/ha (converted), in various dosages. After the treatment, the pots are placed in a greenhouse and kept under good growth conditions for the weeds. After the test plants have emerged after a trial period of 3 to 4 weeks, the damage to the plants or the negative effect on emergence is rated visually by comparison with untreated controls. As shown by the test results, the novel compounds have good herbicidal pre-emergence activity against a broad spectrum of weed grasses and broad-leaved weeds.

[2] = test system: Stellaria media, Amaranthus retroflexus, Sinapis avreuse, Avena fatura, Lolium multiflorum and Setaria viridis; assay: Post-emergence action against weeds (greenhouse pot test, visual rating); settings: three-leaf stage, application rate of 3.0 kg or less of active substance per hectare, 3 to 4 weeks in greenhouse
Protocol: Seeds of mono- and dicotyledonous weeds are placed in sandy loam soil in cardboard pots, covered with soil and cultivated in a greenhouse under good growth conditions. Two to three weeks after sowing, the test plants are treated at the three-leaf stage. The novel compounds, formulated as wettable powders or emulsion concentrates, are sprayed in various dosages onto the green parts of the plant at an application rate of from 600 to 8001 of water/ha (converted), and, after the test plants have remained in the greenhouse for 3 to 4 weeks under optimum growth conditions, the action of the preparations is rated visually by comparison with untreated controls. The novel compositions also have good post-emergence herbicidal activity against a broad spectrum of economically important weed grasses and broad-leaved weeds.

[3] = test system: Cyperus iria and Echinocloa crus-galli; assay: Action on weeds in rice (paddy rice conditions, visual rating); settings: dammed height of water 2-3 cm, about three weeks after application; note: test concentration or dose not given here
Text: Typical rice weeds such as Echinocloa crus galli and Cyperus iria are cultivated in a greenhouse under paddy rice conditions ([…] height of water: 2-3 cm). After the treatment, the test plants are set up in a greenhouse under optimum growth conditions and are maintained in this way under these conditions throughout the test period. About three weeks after application, evaluation is made by visual rating of the damage to the plants by comparison with untreated controls.

Row | SMILES | herbicidal activity pre-emergence (damage to the plants or negative effect on emergence, rated visually) [1] | herbicidal activity post-emergence (rated visually) [2] | herbicidal activity against rice weeds (visual rating of damage) [3]
1 | CC(CCOc1cc(F)cc(F)c1)Nc1nc(N)nc(C(C)C)n1 (stereo not shown) [Example 281] | good and in most cases very good herbicidal activity | good and in most cases very good herbicidal activity | very good herbicidal activity
2 | CC(CCOc1cccc(F)c1)Nc1nc(N)nc(C(C)(C)F)n1 (stereo not shown) [Example 308] | good and in most cases very good herbicidal activity | good and in most cases very good herbicidal activity | very good herbicidal activity
3 | CCC(CCOc1ccccc1)Nc1nc(N)nc(C(C)(C)F)n1 (stereo not shown) [Example 369] | good and in most cases very good herbicidal activity | good and in most cases very good herbicidal activity | very good herbicidal activity
4 | CC(CCOc1ccccc1)Nc1nc(N)nc(C(C)(C)F)n1 (stereo not shown) [Example 368, 2-amino-4-fluoroisopropyl-6-[N-(1-methyl-3-phenoxyprop-1-yl)amino]-1,3,5-triazine] | good and in most cases very good herbicidal activity | good and in most cases very good herbicidal activity | very good herbicidal activity
5 | CCC(CCOc1ccccc1)Nc1nc(N)nc(C(F)(F)C(F)F)n1 (stereo not shown) [Example 394] | good and in most cases very good herbicidal activity |  | very good herbicidal activity
6 | Cc1cccc(COCC(C)Nc2nc(N)nc(C(C)(C)F)n2)c1 (stereo not shown) [Example 120] | good and in most cases very good herbicidal activity |  | very good herbicidal activity
7 | Cc1cc(C)cc(CON=CCNc2nc(N)nc(C(C)F)n2)c1 (stereo not shown) [Example 1234] | good and in most cases very good herbicidal activity | good and in most cases very good herbicidal activity | 
8 | CC(CCCCOc1ccccc1)Nc1nc(N)nc(C(C)(C)F)n1 (stereo not shown) [Example 609] | good and in most cases very good herbicidal activity | good and in most cases very good herbicidal activity | 
9 | CCC(COCCOc1ccccc1)Nc1nc(N)nc(C(C)C)n1 (stereo not shown) [Example 1345] | good and in most cases very good herbicidal activity | good and in most cases very good herbicidal activity | 
10 | Cc1cccc(OCCCC(Nc2nc(N)nc(C(C)(C)F)n2)C2CC2)c1 (stereo not shown) [Example 582] | good and in most cases very good herbicidal activity | good and in most cases very good herbicidal activity | 
11 | CCc1nc(N)nc(NCC=NOCc2cc(C)cc(C)c2)n1 [Example 1235] | good and in most cases very good herbicidal activity | good and in most cases very good herbicidal activity | 
12 | CCC(CCCOc1ccccc1)Nc1nc(N)nc(C(C)C)n1 (stereo not shown) [Example 510] | good and in most cases very good herbicidal activity | good and in most cases very good herbicidal activity | 
13 | CCC(CCCCOc1ccccc1)Nc1nc(N)nc(C(C)(C)F)n1 (stereo not shown) [Example 598] | good and in most cases very good herbicidal activity | good and in most cases very good herbicidal activity | 
14 | CC(CCCOc1ccccc1)Nc1nc(N)nc(C(C)C)n1 (stereo not shown) [Example 531] | good and in most cases very good herbicidal activity | good and in most cases very good herbicidal activity | 
15 | CC(COCCOc1ccccc1)Nc1nc(N)nc(C(C)(C)F)n1 (stereo not shown) [Example 1385] | good and in most cases very good herbicidal activity | good and in most cases very good herbicidal activity | 
16 | CC(CCOc1cccc(F)c1)Nc1nc(N)nc(C(C)C)n1 (stereo not shown) [Example 300] | good and in most cases very good herbicidal activity |  | very good herbicidal activity
17 | CCC(CCCOc1ccccc1)Nc1nc(N)nc(C(C)(C)F)n1 (stereo not shown) [Example 490] | good and in most cases very good herbicidal activity | good and in most cases very good herbicidal activity | 
18 | CCC(COC(=O)c1ccccc1OC(C)=O)Nc1nc(N)nc(C(C)C)n1 (stereo not shown) [Example 46] |  | good and in most cases very good herbicidal activity | very good herbicidal activity
19 | CCC(CCCCOc1ccccc1)Nc1nc(N)nc(C(F)(F)C(F)F)n1 (stereo not shown) [Example 605] | good and in most cases very good herbicidal activity | good and in most cases very good herbicidal activity | 
20 | Cc1cc(C)cc(CON=CCNc2nc(N)nc(C(C)(C)F)n2)c1 [Example 1236] | good and in most cases very good herbicidal activity | good and in most cases very good herbicidal activity | 
21 | CC(CCCCOc1ccccc1)Nc1nc(N)nc(C(C)F)n1 (stereo not shown) [Example 626] | good and in most cases very good herbicidal activity | good and in most cases very good herbicidal activity | 
22 | CC(C)c1nc(N)nc(NCC(=O)NCc2ccccc2)n1 [Example 987] | good and in most cases very good herbicidal activity | good and in most cases very good herbicidal activity | 
23 | CC(F)c1nc(N)nc(NC2CCCCC2COc2ccccc2)n1 (stereo not shown) [Example 870] | good and in most cases very good herbicidal activity | good and in most cases very good herbicidal activity | 
24 | Nc1nc(NC(CCCCOc2ccccc2)C2CC2)nc(C(F)(F)C(F)F)n1 (stereo not shown) [Example 645] | good and in most cases very good herbicidal activity | good and in most cases very good herbicidal activity | 
25 | CC(C)c1nc(N)nc(NCC=NOCc2ccccc2)n1 [Example 1253] | good and in most cases very good herbicidal activity | good and in most cases very good herbicidal activity | 
26 | CC(CCCOc1ccccc1)Nc1nc(N)nc(C(C)(C)F)n1 (stereo not shown) [Example 501] | good and in most cases very good herbicidal activity | good and in most cases very good herbicidal activity | 
27 | CC(C)(F)c1nc(N)nc(NC(CCCOc2ccccc2)C2CC2)n1 (stereo not shown) [Example 528] | good and in most cases very good herbicidal activity | good and in most cases very good herbicidal activity | 
